Numbers after ± are expanded uncertainties.
Key:
[1] = refractive index (Na D-line) (dimensionless); details: 293 K; 101.33 kPa; Liquid; Standard Abbe refractometry
[2] = Liquid; for mass density: 293 K, 101.33 kPa, Vibrating tube method; for Normal boiling temperature: Fischer boiling apparatus

SMILES	refractive index [1]	mass density [2]	Normal boiling temperature [2]
CCC(=O)O [propanoic acid]	1.3811 ± 0.0011	992.5 ± 0.5 kg/m3	140.90 ± 0.2 °C
CC(=O)OC1CCCCC1 [cyclohexyl ethanoate]	1.4398 ± 0.0011	969.2 ± 0.9 kg/m3	172.60 ± 0.2 °C
CCCCCO [pentan-1-ol]	1.4104 ± 0.0011	814 ± 0.5 kg/m3	138.00 ± 0.2 °C
CC(=O)O [acetic acid]	1.372 ± 0.0011	1049.5 ± 0.5 kg/m3	117.70 ± 0.2 °C
Cc1ccccc1 [toluene]	1.496 ± 0.0011	867.3 ± 0.5 kg/m3	110.30 ± 0.2 °C
